According to patent US20020037311A1, “Transdermal delivery of lasofoxifene” (priority 2000, published 2002):
Where “and” joins values, the source holds several entries; their conditions need not be identical. Equal values may be shown once. Read-outs that look alike come from different tables or passages of the source.

Legend:
[1] = compared with estradiol therapy; cited from earlier work
[2] = ovariectomized rats; cited from earlier work
[3] = postmenopausal women; cited from earlier work
[4] = In vitro skin flux, adhesive matrix systems, modified Franz diffusion cells; format: in vitro ADME, human; conditions: for Average Daily Flux of CP-336,156 over 7 Days: Example 1 matrix TSR 58 adhesive/triacetin/CP-336,156 84/10/6% w/w; for Cumulative Permeation of CP-336,156 over 24 Hours, Enhanced 1.5% w/w NaLG: Example 2 matrix Morstik 214, 3% w/w CP-336,156 tartrate salt + 1.5% w/w sodium lauroyl glycolate; for Cumulative Permeation of CP-336,156 over 24 Hours, Unenhanced: Example 2 matrix Morstik 214 water-based adhesive, 3% w/w CP-336,156 tartrate salt, no enhancer; for Enhancement Factor Q24 enhanced/Q24 unenhanced: Example 2 matrix, 1.5% w/w NaLG vs unenhanced
Protocol: Pressure sensitive adhesive matrix systems prepared according to the teachings of U.S. Pat. No. 5,952,000, incorporated herein by reference. First, the solids content of the adhesive solution (water or organic solvent based) was determined by placing a known weight of solution in a weighed aluminum dish and evaporating the solvents overnight in a 70. degree. C. convection oven. The solid adhesive content of the solution was calculated by dividing the adhesive solid weight after drying by the initial total solution weight. Next, a weighed quantity of adhesive solution was added to a glass bottle and the drug substance, permeation enhancer, and other excipients were weighed and added to the adhesive solution in a quantity necessary to achieve the desired dry matrix film composition. The solution containing the adhesive polymer, drug substance, and other excipients as necessary was then mixed overnight. After mixing, approximately 8 ml of the solution was dispensed on a silanized polyester release liner and film cast using a casting knife with a gap size appropriate to achieve a final dried thickness of approximately 0.05 mm. The cast film was dried in a 70° C. convection oven until all solvents had evaporated to yield a dried matrix (15 minutes for organic solvent based adhesives, 30 minutes for water emulsion based adhesives). Finally, an 0.08 mm thick occlusive polyethylene backing film was laminated onto the dried adhesive matrix, and these systems were then used to conduct in vitro skin flux experiments as described below.
(§1) In vitro skin flux studies were conducted using human cadaver epidermal membrane in modified Franz non-jacketed diffusion cells. The epidermal membrane (stratum corneum and epidermis) was separated from whole skin (epidermal membrane and dermis) by the method of Kligman and Christopher (Arch. Dermatol. 88:702 (1963)). This method involves the exposure of the full-thickness skin to water at 60.degree C. for a time period of 60 seconds. After this period, the epidermal membrane was gently peeled off the dermis and stored for later use in aluminum foil at −5° C.
Prior to each permeation experiment with a matrix system, the matrix system was cut into a circular sample of 0.7 cm^2 area and the silanized release liner was removed. The adhesive was affixed to the stratum corneum side of the thawed epidermal membrane which was then cut to an appropriate size and clamped in place between the two halves of the diffusion cell with the stratum corneum facing the donor compartment. The receiver compartment was filled with water or an aqueous solution appropriate to maintain sink conditions for the drug. All receiver solutions included 0.02% (w/w) sodium azide (NaN3) to inhibit bacterial growth. The diffusion cell was placed in a temperature controlled circulating water bath calibrated to maintain the surface temperature of the skin at 32° C. The receiver compartment was constantly stirred by a magnetic stir-bar in the receiver compartment agitated by a magnetic stirring module placed under the water bath.
(§2) The following sampling procedure was used for all dosage forms. At predetermined sampling time points, the entire contents of the receiver compartment were collected for drug quantitation and the receiver compartment was filled with fresh solution, taking care to eliminate any air bubbles at the skin/solution interface. […]

[5] = In vitro skin flux, hydroalcoholic gels (liquid reservoir), finite occluded dose, modified Franz diffusion cells; format: in vitro ADME, human; conditions: for Average Daily Flux of CP-336,156 over 7 Days: Example 3 gel EtOH/H2O/Gly/GMO/ML 50/15/30/2.5/2.5% v/v, CP-336,156 tartrate salt 2 mg/ml; for Average Daily Flux of CP-336,156 over 6 Days: Example 4 gel EtOH/H2O/Gly/GMO/LA 30/38/30/1/1% v/v (two-phase dispersion); for Average Daily Flux of CP-336,156 over 6 Days / Average Daily flux over 7 Days, Unenhanced 0% GMO / Average Daily flux over 7 Days, 0.03% GMO / Average Daily flux over 7 Days, 0.06% GMO / Average Daily flux over 7 Days, 0.12% GMO: CP-336,156 tartrate salt 6 mg/ml; for Average Daily flux over 7 Days, Unenhanced 0% GMO: Example 5 gel EtOH/IPA/H2O/Gly 26.25/8.75/35/30% v/v; for Average Daily flux over 7 Days, 0.03% GMO / Average Daily flux over 7 Days, 0.06% GMO / Average Daily flux over 7 Days, 0.12% GMO: Example 5 gel EtOH/IPA/H2O/Gly; for Average Daily flux over 7 Days, 0.03% GMO: 0.03% v/v glycerol monooleate; for Average Daily flux over 7 Days, 0.06% GMO: 0.06% v/v glycerol monooleate; for Average Daily flux over 7 Days, 0.12% GMO: 0.12% v/v glycerol monooleate (cloudy dispersion); for E = Enhancement Factor = Average Daily Flux from Enhanced Formulation/Average Daily Flux from Unenhanced Control: Example 5 gel
Protocol: Hydroalcoholic gels were prepared on a 10 ml scale as follows. Ethyl alcohol (190 proof ethanol), water, glycerin, enhancer and drug were combined in the appropriate proportions and mixed for several hours. The gelling agent (hydroxypropylcellulose) was added and the solution was mixed briefly at high shear, then mixed at low shear until a gel was formed.
as §1
Permeation experiments with hydroalcoholic gels were performed using finite occluded doses. The occluded dose is an appropriate in vitro model for the application of a transdermal patch drug delivery system containing a liquid or gel reservoir.
Occluded dosing experiments were set-up according to the following procedure. Prior to skin permeation experiments, the epidermal membrane was cut to an appropriate size and placed between the two halves of the diffusion cell with the epidermal side facing the receiver compartment. The receiver compartment was filled with an appropriate solution then the diffusion cell was placed in a circulating water bath calibrated to maintain the temperature of the skin surface at 32° C. and allowed to hydrate overnight. After hydration, a sample of the gel (75 µl) was pipetted into a cavity created by placing a polyethylene washer over the stratum corneum surface. This cavity was covered with an occlusive backing film which was clamped in place.
as §2

[6] = male rats; cited from earlier work
[7] = female and male rats; cited from earlier work
[8] = second skin source (name not given), 5 cells
[9] = third skin source (name not given), 5 cells

Oc1ccc2c(c1)CC[C@H](c1ccccc1)[C@@H]2c1ccc(OCCN2CCCC2)cc1 [CP-336,156, lasofoxifene]
uterine-stimulating effects [1]: without the uterine-stimulating effects | bone loss [2]: prevent bone loss | bone loss [3]: prevent bone loss | Average Daily Flux of CP-336,156 over 7 Days ([4]; All Skins, Mean ± SEM): 8.6 ± 1.2 µg/cm²/day | Average Daily Flux of CP-336,156 over 7 Days ([4]; Skin 1B, 4 diffusion cells): 5.7 ± 0.8 µg/cm²/day | Average Daily Flux of CP-336,156 over 7 Days ([4]; Skin 1C, 8 diffusion cells): 9.2 ± 2.9 µg/cm²/day | Average Daily Flux of CP-336,156 over 7 Days ([4]; Skin 1D, 4 diffusion cells): 13.4 ± 7.8 µg/cm²/day | Average Daily Flux of CP-336,156 over 7 Days ([4]; Skin 1E, 4 diffusion cells): 10.2 ± 3.4 µg/cm²/day | Average Daily Flux of CP-336,156 over 7 Days ([4]; Skin 1F, 4 diffusion cells): 5.1 ± 1.1 µg/cm²/day | Average Daily Flux of CP-336,156 over 7 Days ([4]; Skin 1G, 4 diffusion cells): 11.4 ± 2.4 µg/cm²/day | Average Daily Flux of CP-336,156 over 7 Days ([4]; Skin IA, 7 diffusion cells): 5.5 ± 3.4 µg/cm²/day | Cumulative Permeation of CP-336,156 over 24 Hours, Enhanced 1.5% w/w NaLG ([4]; All Skins Mean ± SEM): 1.42 ± 1.05 μg/cm^2/24 h | Cumulative Permeation of CP-336,156 over 24 Hours, Enhanced 1.5% w/w NaLG ([4]; Skin 2A, 5 cells): 0.30 ± 0.12 μg/cm^2/24 h | Cumulative Permeation of CP-336,156 over 24 Hours, Enhanced 1.5% w/w NaLG [4, 8]: 3.51 ± 0.93 μg/cm^2/24 h | Cumulative Permeation of CP-336,156 over 24 Hours, Enhanced 1.5% w/w NaLG [4, 9]: 0.46 ± 0.16 μg/cm^2/24 h | Cumulative Permeation of CP-336,156 over 24 Hours, Unenhanced ([4]; All Skins Mean ± SEM): 0.99 ± 0.85 μg/cm^2/24 h | Cumulative Permeation of CP-336,156 over 24 Hours, Unenhanced ([4]; Skin 2A, 5 cells): 0.13 ± 0.09 μg/cm^2/24 h | Cumulative Permeation of CP-336,156 over 24 Hours, Unenhanced [4, 8]: 2.70 ± 1.08 μg/cm^2/24 h | Cumulative Permeation of CP-336,156 over 24 Hours, Unenhanced [4, 9]: 0.15 ± 0.09 μg/cm^2/24 h | Enhancement Factor Q24 enhanced/Q24 unenhanced ([4]; All Skins Mean ± SEM): 2.2 and 2.21 ± 0.51 | Enhancement Factor Q24 enhanced/Q24 unenhanced ([4]; Skin 2A): 2.28 | Enhancement Factor Q24 enhanced/Q24 unenhanced ([4]; second skin source (name not given)): 1.30 | Enhancement Factor Q24 enhanced/Q24 unenhanced ([4]; third skin source (name not given)): 3.06 | Average Daily Flux of CP-336,156 over 7 Days ([5]; All Skins, Mean ± SEM): 21.6 ± 2.3 ug/cm^2/day | Average Daily Flux of CP-336,156 over 7 Days ([5]; Skin 3A, 8 cells): 174 ± 7.7 ug/cm^2/day | Average Daily Flux of CP-336,156 over 7 Days ([5]; Skin 3B, 4 cells): 15.3 ± 8.7 ug/cm^2/day | Average Daily Flux of CP-336,156 over 7 Days ([5]; Skin 3C, 8 cells): 23.9 ± 11.0 ug/cm^2/day | Average Daily Flux of CP-336,156 over 7 Days ([5]; Skin 3D, 4 cells): 27.9 ± 2.2 ug/cm^2/day | Average Daily Flux of CP-336,156 over 7 Days ([5]; Skin 3E, 4 cells): 21.2 ± 9.9 ug/cm^2/day | Average Daily Flux of CP-336,156 over 7 Days ([5]; Skin 3F, 4 cells): 15.4 ± 7.2 ug/cm^2/day | Average Daily Flux of CP-336,156 over 7 Days ([5]; Skin 3G, 4 cells): 30.3 ± 4.9 ug/cm^2/day | Average Daily Flux of CP-336,156 over 6 Days ([5]; All Skins, Mean ± SEM): 38.3 ± 3.3 ug/cm^2/day | Average Daily Flux of CP-336,156 over 6 Days ([5]; Skin 4A, 5 cells): 42.4 ± 15.5 ug/cm^2/day | Average Daily Flux of CP-336,156 over 6 Days ([5]; Skin 4B, 5 cells): 36.3 ± 5.2 ug/cm^2/day | Average Daily Flux of CP-336,156 over 6 Days ([5]; Skin 4C, 5 cells): 36.2 ± 14.9 ug/cm^2/day | Average Daily flux over 7 Days, Unenhanced 0% GMO ([5]; All Skins): 11.8 ug/cm^2/24 h | Average Daily flux over 7 Days, Unenhanced 0% GMO ([5]; Skin 5A, n = 2-5 cells): 6.4 ug/cm^2/24 h | Average Daily flux over 7 Days, Unenhanced 0% GMO ([5]; Skin 5B, n = 2-5 cells): 17.4 ug/cm^2/24 h | Average Daily flux over 7 Days, Unenhanced 0% GMO ([5]; Skin 5C, n = 2-5 cells): 11.6 ug/cm^2/24 h | Average Daily flux over 7 Days, 0.03% GMO ([5]; All Skins): 33.0 ug/cm^2/24 h | Average Daily flux over 7 Days, 0.03% GMO ([5]; Skin 5A, n = 2-5 cells): 7.1 ug/cm^2/24 h | Average Daily flux over 7 Days, 0.03% GMO ([5]; Skin 5B, n = 2-5 cells): 69.5 ug/cm^2/24 h | Average Daily flux over 7 Days, 0.03% GMO ([5]; Skin 5C, n = 2-5 cells): 22.4 ug/cm^2/24 h | Average Daily flux over 7 Days, 0.06% GMO ([5]; All Skins): 35.6 ug/cm^2/24 h | Average Daily flux over 7 Days, 0.06% GMO ([5]; Skin 5A, n = 2-5 cells): 11.6 ug/cm^2/24 h | Average Daily flux over 7 Days, 0.06% GMO ([5]; Skin 5B, n = 2-5 cells): 74.9 ug/cm^2/24 h | Average Daily flux over 7 Days, 0.06% GMO ([5]; Skin 5C, n = 2-5 cells): 20.3 ug/cm^2/24 h | Average Daily flux over 7 Days, 0.12% GMO ([5]; All Skins): 41.8 Ug/cm^2/24 h | Average Daily flux over 7 Days, 0.12% GMO ([5]; Skin 5A, n = 2-5 cells): 16.8 Ug/cm^2/24 h | Average Daily flux over 7 Days, 0.12% GMO ([5]; Skin 5B, n = 2-5 cells): 85.2 Ug/cm^2/24 h | Average Daily flux over 7 Days, 0.12% GMO ([5]; Skin 5C, n = 2-5 cells): 23.6 Ug/cm^2/24 h | E = Enhancement Factor = Average Daily Flux from Enhanced Formulation/Average Daily Flux from Unenhanced Control ([5]; 0.03% GMO vs 0% GMO, All Skins): 2.34 ± 0.37 | E = Enhancement Factor = Average Daily Flux from Enhanced Formulation/Average Daily Flux from Unenhanced Control ([5]; 0.03% GMO vs 0% GMO, Skin 5A): 1.12 | E = Enhancement Factor = Average Daily Flux from Enhanced Formulation/Average Daily Flux from Unenhanced Control ([5]; 0.03% GMO vs 0% GMO, Skin 5B): 3.99 | E = Enhancement Factor = Average Daily Flux from Enhanced Formulation/Average Daily Flux from Unenhanced Control ([5]; 0.03% GMO vs 0% GMO, Skin 5C): 1.93 | E = Enhancement Factor = Average Daily Flux from Enhanced Formulation/Average Daily Flux from Unenhanced Control ([5]; 0.06% GMO vs 0% GMO, All Skins): 2.62 ± 0.43 | E = Enhancement Factor = Average Daily Flux from Enhanced Formulation/Average Daily Flux from Unenhanced Control ([5]; 0.06% GMO vs 0% GMO, Skin 5A): 1.81 | E = Enhancement Factor = Average Daily Flux from Enhanced Formulation/Average Daily Flux from Unenhanced Control ([5]; 0.06% GMO vs 0% GMO, Skin 5B): 4.30 | E = Enhancement Factor = Average Daily Flux from Enhanced Formulation/Average Daily Flux from Unenhanced Control ([5]; 0.06% GMO vs 0% GMO, Skin 5C): 1.74 | E = Enhancement Factor = Average Daily Flux from Enhanced Formulation/Average Daily Flux from Unenhanced Control ([5]; 0.12% GMO vs 0% GMO, All Skins): 3.18 ± .36 | E = Enhancement Factor = Average Daily Flux from Enhanced Formulation/Average Daily Flux from Unenhanced Control ([5]; 0.12% GMO vs 0% GMO, Skin 5A): 2.62 | E = Enhancement Factor = Average Daily Flux from Enhanced Formulation/Average Daily Flux from Unenhanced Control ([5]; 0.12% GMO vs 0% GMO, Skin 5B): 4.89 | E = Enhancement Factor = Average Daily Flux from Enhanced Formulation/Average Daily Flux from Unenhanced Control ([5]; 0.12% GMO vs 0% GMO, Skin 5C): 2.03 | effect on prostate [6]: did not affect prostate | total serum cholesterol [7]: decreased
